Measurements taken from patent publication US6342187B1, “Process and apparatus for dry sterilization of medical devices and materials” (priority 1987, dated 2002).
Several values for one entry are separate records, joined by “and”; a condition that tells them apart may be missing. Equal entries are not always repeated. Where two headings read alike, the source gives them in different places.

Legend:
Type in all cases: cell-based
[1] = system: biological indicator organism; experiment: Example 21 designed experiments, modified AAMI EO test packs, log reduction (organism not specified); conditions: Example 21, mean over designed experiments; both precursors vaporized at 74° C.; 40 kHz, 5 kW
Description: AAMI EO Test Packs: Modified AAMI Standard EO packs were prepared in which the BI strip was removed from its glassine wrap before processing. Three strips were placed in each syringe, and the syringe was closed at its large end with the standard rubber stopper. A second syringe was prepared containing one MDT Biosign CLBI (results reported as fractional negative). The syringes were placed adjacent to one another and were wrapped in a huckabuck towel per the AAMI EO Test Pack standard. The entire assembly was placed in a Baxter ‘Tower Dual-Peel’ 7.5″×13″ paper-plastic peel pouch, which was subsequently heat sealed.
Statistical Design of Experiments: This example is based upon both Taguchi and Greco-Latin Square experimental designs in accordance with standard statistical design of experiment techniques [CSS:Statistica, StatSoft, Tulsa, Okla. ]. These experimental designs permitted variation of four parameters over four discrete levels (Greco-Latin Square) or five parameters over four discrete levels (Taguchi L′16 design). The resultant data, reported as log reduction, is analyzed to provide mean values for each of the parameters at each parameter level. Also provided are ANOVA and correlation results (for reduction vs. exposure time), which evaluate the statistical validity of the data. […]

Bstm = experiment: Example 22 direct comparison of sterilant precursors, AAMI standard EO test packs; conditions: Example 22: 45 min plasma, 40 kHz, 5 kW, 600 microns; 30 min preconditioning; base pressure 100 microns; Bstm 10^6 spores; peracetic acid vaporized at 60° C., hydrogen peroxide at 74° C.
Description: A direct comparison of 15% peracetic acid and 70% hydrogen peroxide sterilant precursors was made by exposing AAMI standard EO test packs for 45 minutes to plasma induced by 40 kHz excitation frequency with 5 kW RF power. […] No glassine was used on the BI strips (Bstm, 10^6 spore population, MDT lot 601).

[2] = system: Bacillus Subtilis var Niger; conditions: for vials with total kill, of ten Attest vials: Pyrex chamber, cooled cylinder, 0.280-0.300 torr, 38-57° C., moist = H2O 300 ppm
Excerpt: However, for each of the examples the general technique involved was one in which the material to be sterilized was placed directly in the reaction chamber, or placed within a Tyvek/polyethylene pouch which itself was sealed and placed in a wire basket within the reaction chamber.
The materials used for verification of sterilization effectiveness were “Attest” vials obtained from 3M Company, or “Spordex” bacterial test strips obtained from the American Sterilizer Company, each vial or “Spordex” envelope contained a bacterial strip having an original spore population of not less than 1×10^6 Bacillus Subtilis var Niger per strip, but more commonly in the range 2.2-4.0×10^6 spores/strip. The strips contained the permeable plastic vials were not brought into contact with the culture solution contained in any of the vials prior to sterilization. The vials were placed within the Tyvek/polyethylene bags during the plasma sterilization, alongside devices or instruments to be sterilized. The bags were always sealed during the sterilization process.
For each example the chamber was first evacuated to an initial low pressure level after the materials (in the bags or pouches) were placed within it. The chamber was thereafter filled with the appropriate gas prior to striking the discharge, and the gas continued to flow through the chamber at a controlled rate to establish a steady state sterilization pressure. The discharge was initiated by the application of RF or microwave power as indicated. The discharge was maintained for a controlled time period at the end of which the power was turned off, the chamber was first evacuated, then backfilled with air through a bacteria retentive filter, and later opened and the samples removed. The temperature within the chamber during the process was maintained at less than 70° C., and more typically around 25° C. to 65° C., as sensed by an iron-constantan, type “J”, thermocouple circuitry and monitored by an analog temperature meter.
Subsequent to the tests, the spore strips in the “Attest” vials where brought into contact with the self-contained culture solution and incubated for 72 hr, at the end of which period microorganism growth or no growth would be indicated by the resultant color of the culture solution. Alternatively, the spore strips were submitted to an independent testing laboratory which performed a total plate count on the sample strips using a procedure in which 100 milliliters of sterile deionized water were added to each strip in a sterile whirl-pak bag. The bag was then placed in a lab blender for 10 minutes. One 10 milliliter aliquot of sample, a duplicate one milliliter sample, and two consecutive 10^−1 dilutions were plated using Tryptic Soy Agar. The plates were then incubated at 30-35° C. for 72 hours. After incubation, the plates were read and recorded, and the results calculated on a Colony Forming Unit (CFU) basis.

In the case of `CC(=O)OO` [15% peracetic acid, peracetic acid], the mean log reduction [1] is reported as 2.8 log reduction and the mean log reduction (Bstm) is reported as 5.57.

With `OO` [70% hydrogen peroxide, hydrogen peroxide] the mean log reduction [1] was 3.1 log reduction and the mean log reduction (Bstm) was 5.43.

With `N#N` [Dry N2, Nitrogen] the “vials with total kill, of ten Attest vials” value (from here on “vials with total kill”) ([2]; Example 18: exposure 30 min, 100 scc/min, 0.020 W/cc) was 0 vials - total kill, the “vials with total kill” value ([2]; Example 18: exposure 45 min, 100 scc/min, 0.020 W/cc) was 0 vials - total kill and the “vials with total kill” value ([2]; Example 18: exposure 60 min, 100 scc/min, 0.020 W/cc) was 1 vial - total kill vials. The “vials with total kill” value ([2]; Example 18: exposure 75 min, 100 scc/min, 0.020 W/cc) was 2 vials - total kill.

`O=O` [O2, Oxygen] was tested, and the Percent Kill [2] was 99.9999%, the “Percent Kill (%)” value [2] was 77.6923% and 99.9999% and the “Resultant Microbial Count (CFUs)” value [2] was 5.8 × 10^5 CFUs and <10 CFUs. For the same compound, the Resultant microbial count [2] was under 10 CFU, the Percent Kill ([2]; Example 2: metal chamber, cooled perforated cylinder (FIG. 4), 20 scc/min, 0.30 torr, 0.050 W/cm^3, 60 min, 32° C.) was “Total kill” and the Percent Kill ([2]; Example 4: metal chamber, two uncooled perforated cylinders (FIG. 6), 20 scc/min, 0.30 torr, 0.050 W/cm^3, 60 min, 76° C.) was “Total kill”. The Percent Kill ([2]; Example 8: Pyrex chamber, cooled perforated cylinder (FIG. 1), 25 scc/min, 0.30 torr, 0.015 W/cm^3, 30 min, 26° C.) was “Total kill”, the Percent Kill ([2]; Example 9: Pyrex chamber, uncooled perforated cylinder (FIG. 1), 25 scc/min, 0.30 torr, 0.015 W/cm^3, 30 min, 83° C.) was “Total kill” and the “Percent Kill” value ([2]; Example 12: Pyrex chamber, two uncooled perforated cylinders, 70 scc/min, 0.275 torr, 0.016 W/cc, 45 min, 92° C., AAMI standard sterilization test pack) was “Total Kill”. The “Percent Kill” value ([2]; Example 13: Pyrex chamber, two cooled perforated cylinders, conditions as Example 12, 54° C., AAMI test pack) was “Total Kill”, the “Percent Kill” value ([2]; Example 14: Pyrex chamber, uncooled perforated cylinder, 70 scc/min, 0.275 torr, 0.014 W/cc, 30 min, 85° C.) was “Total Kill” and the “Percent Kill” value ([2]; Example 15: Pyrex chamber, cooled perforated cylinder (FIG. 1), conditions as Example 14, 47° C.) was “Total Kill”. The “Percent Kill” value ([2]; Example 16: Pyrex chamber, cooled perforated cylinder (FIG. 1), conditions as Example 14, exposure 2¼ hr, 51° C.) was “Total Kill” and the “Percent Kill” value ([2]; Example 19: spore strip in middle of 24-inch PVC or silicone rubber tubing, in sealed pouch, 100 scc/min, 0.280 torr, 0.020 W/cc, 70-105 min, 50° C.) was “Total Kill”.
